Experimental data reported in PubChem BioAssay AID248 (DTP/NCI, 2004).
Toxic doses and inconclusive results are not listed. Cut-off read from the data, not from the text of the source: active = T/C of 150% or more; inactive = T/C below 125%.

Test system: L1210 leukemia ip in BDF1 mice, survival T/C
Experiment: NCI In Vivo Anticancer Drug Screen. Data for tumor model L1210 Leukemia (intraperitoneal) in B6D2F1 (BDF1) mice
Settings: endpoint: mean survival time, higher = longer survival
Procedure, shortened: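 Antitumor effect is assessed in tumor-bearing animals. Survival in the compound arm is compared with a vehicle-dosed control arm and expressed as their quotient.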

[1] = dose: 100.0 mg/kg/injection, schedule: Q04DX003 (ip), vehicle: saline
[2] = dose: 200.0 mg/kg/injection, schedule: Q04DX003 (ip), vehicle: saline
[3] = dose: 400.0 mg/kg/injection, schedule: Q04DX003 (ip), vehicle: saline
[4] = dose: 50.0 mg/kg/injection, schedule: Q01DX009 (ip), vehicle: saline with Tween-80
[5] = dose: 100.0 mg/kg/injection, schedule: Q01DX009 (ip), vehicle: saline with Tween-80
[6] = dose: 100.0 mg/kg/injection, schedule: Q04DX003 (ip), vehicle: saline with Tween-80
[7] = dose: 200.0 mg/kg/injection, schedule: Q01DX009 (ip), vehicle: saline with Tween-80
[8] = dose: 200.0 mg/kg/injection, schedule: Q04DX003 (ip), vehicle: saline with Tween-80
[9] = dose: 400.0 mg/kg/injection, schedule: Q01DX009 (ip), vehicle: saline with Tween-80
[10] = dose: 400.0 mg/kg/injection, schedule: Q04DX003 (ip), vehicle: saline with Tween-80
[11] = dose: 100.0 mg/kg/injection, schedule: Q04DX002 (ip), vehicle: saline
[12] = dose: 200.0 mg/kg/injection, schedule: Q04DX002 (ip), vehicle: saline
[13] = dose: 100.0 mg/kg/injection, schedule: Q01DX001 (ip), vehicle: Klucel (hydroxypropylcellulose) (HPC)
[14] = dose: 200.0 mg/kg/injection, schedule: Q01DX001 (ip), vehicle: Klucel (hydroxypropylcellulose) (HPC)
[15] = dose: 400.0 mg/kg/injection, schedule: Q01DX001 (ip), vehicle: Klucel (hydroxypropylcellulose) (HPC)

Measured: T/C

COc1cccc2c1C(=O)c1c(O)c3c(c(O)c1C2=O)C[C@@](O)(C(=O)CO)C[C@@H]3OC1CC(NC(=S)Nc2ccc(F)cc2)C(O)C(C)O1 (some centres undefined)
inactive: [1] 111 % of control | [2] 106 % of control | [3] 104 % of control

CCCCc1c(Cl)nc(Cl)nc1Cl
inactive: dose: 25.0 mg/kg/injection, schedule: Q01DX009 (ip), vehicle: saline with Tween-80 105 % of control | [4] 88 % of control

O=C1OCOC1C1OCOC1=O (centres undefined)
inactive: dose: 55.0 mg/kg/injection, schedule: Q01DX Z (ip), vehicle: methylcellulose (MC) 119 % of control | dose: 83.0 mg/kg/injection, schedule: Q01DX Z (ip), vehicle: methylcellulose (MC) 104 % of control | dose: 125.0 mg/kg/injection, schedule: Q01DX Z (ip), vehicle: methylcellulose (MC) 111 % of control

CN(C)c1ccc(C=NCCCO)cc1
inactive: dose: 100.0 mg/kg/injection, schedule: Q04DX002 (ip), vehicle: saline with Tween-80 92 % of control | dose: 200.0 mg/kg/injection, schedule: Q04DX002 (ip), vehicle: saline with Tween-80 103 % of control

CCCNC(=O)Nc1cc(Cl)ccc1OC
inactive: [5] 100 % of control | [6] 95 % of control | [7] 94 % of control | [8] 103 % of control | [9] 96 % of control | [10] 94 % of control

OCc1cc2ccccc2cc1F
inactive: [4] 105 % of control | [5] 92 % of control | dose: 100.0 mg/kg/injection, schedule: Q04DX003 (ip), vehicle: acetone 100 % of control | [7] 103 % of control | dose: 200.0 mg/kg/injection, schedule: Q04DX003 (ip), vehicle: acetone 87 % of control

CCCCCCCc1c(C)[nH]c2ccccc2c1=O
inactive: dose: 100.0 mg/kg/injection, schedule: Q01DX009 (ip), vehicle: Klucel (hydroxypropylcellulose) (HPC) 86 % of control | dose: 100.0 mg/kg/injection, schedule: Q04DX003 (ip), vehicle: other 98 % of control | dose: 200.0 mg/kg/injection, schedule: Q04DX003 (ip), vehicle: other 94 % of control | dose: 400.0 mg/kg/injection, schedule: Q04DX003 (ip), vehicle: other 91 % of control

CCC(C(=O)OC)C1CCCCC1 (centres undefined)
inactive: [5] 100 % of control | [6] 103 % of control | [7] 87 % of control | [8] 95 % of control | [9] 92 % of control | [10] 95 % of control

O=S(=O)(O)N(O)S(=O)(=O)O
inactive: [11] 97 % of control | [1] 97 % of control | [12] 97 % of control | [2] 90 % of control | dose: 400.0 mg/kg/injection, schedule: Q04DX002 (ip), vehicle: saline 102 % of control

O=C(O)C1CCCCC1C(=O)O (centres undefined)
inactive: [13] 103 % of control | dose: 100.0 mg/kg/injection, schedule: Q04DX003 (ip), vehicle: Klucel (hydroxypropylcellulose) (HPC) 101 % of control | [1] 95 % of control | [14] 91 % of control | dose: 200.0 mg/kg/injection, schedule: Q04DX003 (ip), vehicle: Klucel (hydroxypropylcellulose) (HPC) 97 % of control | [2] 98 % of control | [15] 93 % of control | dose: 400.0 mg/kg/injection, schedule: Q04DX003 (ip), vehicle: Klucel (hydroxypropylcellulose) (HPC) 97 % of control | [3] 98 % of control

C=C(C)CN
inactive: dose: 50.0 mg/kg/injection, schedule: Q01DX009 (ip), vehicle: saline 109 % of control | dose: 100.0 mg/kg/injection, schedule: Q01DX009 (ip), vehicle: saline 117 % of control | [1] 93 % of control | [2] 106 % of control

CNCCCCOC
inactive: [11] 117 % of control | [12] 104 % of control

CCCCCCCCCCCCOc1ccc(C2(c3ccc(CCCCCCCCCCCC)cc3)CCCCC2)cc1
inactive: [13] 101 % of control | [14] 101 % of control | [15] 106 % of control
